The test deals with Cotton plants of the cultivar "Linda". In words: Leaf drop (defoliation) test on cotton plants in climatized chamber, spray application. The format is in vivo. Conditions: 300 l/ha water. As to the method:
A water application rate of 300 l/ha was initially charged. The components herbicide and adjuvant were then added with stirring at the application rates and in the manner stated in table 1, such that a homogeneous spray liquor was formed. Here, the active ingredients were employed as suspension concentrates. The adjuvant used was Agrotin® (Bayer CropScience).
Cotton seeds of the cultivar “Linda” were sown at a depth of 1 cm and cultivated in a climatized chamber (16 h of light, temperature during the day: 26° C., at night: 20° C.) until they had reached the 8-10 leaf stage.
The plants were treated on a laboratory spray track with spray liquors of thidiazuron and thidiazuron with combination partners. The water application rate for the spray application was 300 l/ha. After the treatment, the plants were returned to the climatized chamber.
1, 2 and 4 weeks after the application, the leaf drop effect was evaluated according to a scale from 0 to 100%: • 0%=no noticeable effect compared to untreated plants • 100%=all leaves have dropped. 2.2 Results for the Combinations of (A) TDZ with (B) Cyprosulfamide

Where [1] appears, read: Table 2, dose 25 g of a.i./ha, 0.2% by weight of Agrotin added.
[2] abbreviates: Table 2, dose 200 g of a.i./ha, 0.2% by weight of Agrotin added.

Each structure is given as a SMILES string.

In the case of `O=C(Nc1ccccc1)Nc1cnns1` [TDZ, thidiazuron], the “Leaf drop [%] 2 weeks after application” value (Table 1, dose 35 g of a.i./ha, 1 l of Agrotin added, scale 0-100%) stood at 67%. Further, under setting [1], the “Leaf drop [%] 1 week after application” value was 37%, the “Leaf drop [%] 2 weeks after application” value was determined as 56% and the “Leaf drop [%] 4 weeks after application” value came out at 63%.
With `COc1ccccc1C(=O)NS(=O)(=O)c1ccc(C(=O)NC2CC2)cc1` [Cyprosulfamide, 4-cyclopropylaminocarbonyl-N-(2-methoxybenzoyl)benzenesulfonamide], for the setting “Table 1, dose 100 g of a.i./ha, 1 l of Agrotin added, scale 0-100%”, the “Leaf drop [%] 2 weeks after application” value is given as 7%. Also, the “Leaf drop [%] 2 weeks after application” value (Table 1, dose 200 g of a.i./ha, 1 l of Agrotin added, scale 0-100%) was 0%. For the same molecule, under setting [2], the “Leaf drop [%] 1 week after application” value worked out at 0%, the “Leaf drop [%] 2 weeks after application” value is 0% and the “Leaf drop [%] 4 weeks after application” value amounted to 0%.

(Values after patent US7981838B2, “Defoliant” (Bayer CropScience AG, priority 2007, dated 2011).)
